We go through nine molecules from patent US20230330234A1, “HYPERBRANCHED POLYESTER POLYOL DERIVATIVE AS DRUG SOLUBILIZER” (FREIE UNIVERSITÄT BERLIN, priority 2020, published 2023).

The nature of data set [1]: Carrying potential of h(PG-co-PCL)60S0.95 by elemental analysis. In kind it is physicochemical. The note with it: calculated by elemental analysis. From the text:
(§1) The carrying potential (CP) of the polymer (solubilizing agent) is obtained as the ratio of the loaded and solubilized drug to the amount of solubilizing agent (Eq. 1).
For drugs presenting an absorption band at wavelength lower than 400 nm, the UV-VIS approach is not suitable, due to drug signals overlapping with signals of the solubilizing agent. Therefore, elemental analysis is chosen as alternative approach. The drugs chosen for the solubilization and entrapment contain nitrogen atoms, which are not present in the polymer structure. Via the quantification of the nitrogen content in the sample, it is possible to determine the amount of drug in it. For the loading quantification, the same equation is used as in the previous case.
(§2) The following tables (Table 5, Table 6 and Table 7) show the results of the performed analyses. In this context, h(PG-co-PCL)60S0.95 was used as hyperbranched polyester polyol derivative. Its non-sulfated backbone has a molecular weight of 60 kDa. The polyester polyol derivative has a sulfation degree of 95%.

Data set [2] can be described thus: Size and Z-potential investigation by DLS in PB. The note with it: h(PG-co-PCL)60S0.95 with solubilized drug; for Size (volume): DLS in PB, in nm (unit assumed); for Z-potential: in PB, in mV (unit assumed). In kind it is physicochemical. From the text:
The following tables (Table 5, Table 6 and Table 7) show the results of the performed analyses. In this context, h(PG-co-PCL)60S0.95 was used as hyperbranched polyester polyol derivative. Its non-sulfated backbone has a molecular weight of 60 kDa.

Data set [3] can be described thus: physchem. The note with it: aqueous with cosolvent or surfactant or cyclodextrin, thermodynamic from solid.
A further data set is described as follows: Solubility in water. The note with it: for solubility: Solubility in water.
The nature of data set [4]: Carrying potential of h(PG-co-PCL)60S0.95 by UV-VIS. The note with it: calculated by UV. The class given is physicochemical. As to the method:
For drugs presenting an absorption band at wavelength higher than 400 nm, UV-VIS analysis is chosen as quantification method. First, a calibration curve of the free drug in the suitable solvent mixture is recorded. Suitable combinations of solvent include mixtures of water and methanol, as well as of water and ethanol, in both cases in a ratio falling in a range of from 40 to 60% to 20 to 80%.
The calibration curve is prepared with at least 5 points, in a concentration range depending on the drug to be quantified. Linear regression is applied to generate the equation of the straight-line necessary to calculate the drug content.
The formulation is afterwards dissolved in the same medium and an UV-VIS spectrum is recorded. It is possible to use a straight-line equation to get the concentration of drug in solution. Knowing the total volume of the formulation, the content of drug, in mg, can be calculated.
as §1, §2

In the next data set the test system is HeLa cells. Put plainly: Cell viability experiment (toxicity) in HeLa cells. The class given is cell-based. The note with it: Homo sapiens, free drug solubilized in DMSO vs drug solubilized in sulfated polyester polyol.
Another data set has as its system KB-V1 cells. In words: Cell viability experiment (toxicity) in KB-V1 cells. The class given is cell-based. The note with it: Homo sapiens, free drug solubilized in DMSO vs drug solubilized in sulfated polyester polyol.
Data set [5] is described as follows: physchem. The note with it: water.
Data set [6] is described as follows: Solubility in aqueous solution of the hyperbranched polyester polyol derivative.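 Note: drug added to a previously prepared clear aqueous solution of the solubilizing polymer, stirred 18 h at room temperature in the dark, then centrifuged.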

In brackets after ≈: the same amount, converted by molar mass.

By solubility is commonly meant the dissolved amount per volume that the medium holds. Consider `CC(C)(C)c1nc(-c2cccc(NS(=O)(=O)c3c(F)cccc3F)c2F)c(-c2ccnc(N)n2)s1` [Dabrafenib], for which, in data set [1], the Carrying potential is listed as 1% wt %. For the same molecule, in [2], the “Size (volume)” value is listed as 12 ± 1 and the Z-potential is listed as −29.6. In addition, the solubility at 18 h in the data set “physchem [3]” was greater than 300 µg/mL. The concentration in solution in “Solubility in water” (solubility) was 30 µg/mL (≈ 57.7 µM).
One may read the IC50 as the concentration needed to halve the response being measured. As for `CCN(CC)CCNC(=O)c1c(C)[nH]c(/C=C2\C(=O)Nc3ccc(F)cc32)c1C` [Sunitinib], the Carrying potential is on record as 8.7%^ wt % in data set [1] and 11% wt % in data set [4]. Moreover, the IC50 is 3.52 µg/mL (≈ 8.84 µM) in the data set on HeLa cells and 1.95 µg/mL (≈ 4.9 µM) with KB-V1 cells. Further, the solubility at 18 h in “physchem [3]” is greater than 300 µg/mL. Also, the concentration in solution in “Solubility in water” (solubility) was 30 µg/mL (≈ 75.3 µM).
As for `CC(=O)Nc1cccc(-n2c(=O)n(C3CC3)c(=O)c3c(Nc4ccc(I)cc4F)n(C)c(=O)c(C)c32)c1` [Trametinib], in [1], the Carrying potential was 2% wt %. Also, in data set [2], the “Size (volume)” value came to 14 ± 2 and the Z-potential was −18.9. For the same molecule, the solubility in the data set “physchem [5]” worked out at 30 µg/mL (≈ 48.7 µM). In the data set “physchem [3]”, the solubility at 18 h was greater than 300 µg/mL.
With `CNCc1ccc(-c2cc(-c3nc(-c4ccc(S(=O)(=O)C(C)C)cc4)cnc3N)on2)cc1` [Berzosertib], the Carrying potential in [4] is given as 10% wt %.
On to `CC(C)(C)C[C@@H]1N[C@@H](C(=O)N[C@H]2CC[C@H](O)CC2)[C@H](c2cccc(Cl)c2F)[C@]12C(=O)Nc1cc(Cl)ccc12` [MI-773], for which the Solubility in water in the data set “Solubility in water” was found to be 1 µg/mL (≈ 1.78 µM). Besides, in data set [6], the “Solubility in aqueous polymer solution” value was greater than 300 µg/mL.
As for `[2H]c1nc(C)nc([2H])c1-c1cc(NC[C@@H](C)c2cccc3c(C(=O)NC)ccnc23)ncn1` [M9831/VX-984], in data set [4], the Carrying potential was 10% wt %.
Take `Cc1c(-c2c(-c3ccc(F)o3)sc3ncnc(O[C@H](Cc4ccccc4OCc4ccnn4CC(F)(F)F)C(=O)O)c23)ccc(OCCN2CCN(C)CC2)c1Cl` [S63845]: the solubility is 1 µg/mL (≈ 1.21 µM) in the data set “physchem [5]” and greater than 300 µg/mL in the data set “physchem [3]”.
In “Solubility in water”, `CN[C@@H]1C[C@H]2O[C@@](C)([C@@H]1OC)n1c3ccccc3c3c4c(c5c6ccccc6n2c5c31)C(=O)NC4` [Staurosporin] yielded a Solubility in water of 40 µg/mL (≈ 85.7 µM). Moreover, the “Solubility in aqueous polymer solution” value in data set [6] was greater than 300 µg/mL.
Consider `C=CC(=O)Nc1ccc2[nH]c(=O)n(C3CCN(Cc4ccc(-c5nc6cc[nH]c(=O)c6cc5-c5ccccc5)cc4)CC3)c2c1` [Borussertib], for which the Carrying potential in [1] is 12% wt %.
